# Experimental data as given in patent US10940159B2, “Combination immediate/delayed release delivery system for short half-life pharmaceuticals including remogliflozin” (priority 2010, dated 2021).
# Where two headings read alike, the source gives them in different places.
# What was measured:
# [1] = Half-life, absorption window and permeability; type: in vivo; settings: for half-life: human
# [2] = 12 week clinical studies in T2DM, once daily and twice daily dosing; type: in vivo, human
# Description: To date, studies have assessed the efficacy, safety and tolerability up to 12 weeks, with varying efficacy so there is a need to characterize the profile of a number of selected formulated doses over a 12-week period. […] However to minimize the time which subjects may have sub-optimal glycemic control, the double blind study medication has been limited to 12 weeks duration. In addition, criteria have been included to allow the introduction of rescue therapy after 6 weeks for those subjects who have a high FP. […] Furthermore, there is evidence that at these doses, there may also be clinically relevant weight loss, a key requirement for new T2DM therapies (20). As doses above 250 mg BID may be associated with relatively small incremental benefits on glycemia and weight loss and there is a trend for better tolerability at lower doses, future studies could have total daily doses less than 500 mg per day. […] It is believed that the primary mechanism for this isolated increase in LDL-c is due a combination of 1) hemoconcentration as a result of the diurectic effect, similar to that seen with diuretics (21, 22) and 2) SGLT2 overnight inhibition. […] Further, a combination IR/SR dose given QD in the morning may also provide meaningful benefits on glycemia and weight loss. From a safety perspective, other than small effects observed on the lipid profile and hematocrit, there was little difference in the safety profile based on the frequency of administration.
# [3] = reduced from 9.0%; at mealtime in combination with a sulfonylurea; P<0.0001; cited from earlier work
"half-life ([1]; in vivo, read-out: half-life (t½) (converted)) [h]",permeability in the lower portion of the gastrointestinal tract ([1]; in vivo),"half-life ([1]; in vivo, read-out: half-life) [h]","half-life ([1]; plasma, read-out: half-life (t½) (converted)) [h]","window of absorption ([1]; upper gastrointestinal tract, depending upon food intake, individual differences) [h]",LDL-c ([2]; 250 mg and 500 mg bid doses),LDL-c ([2]; higher QD doses),hematocrit (surrogate marker for hemoconcentration) ([2]; higher QD doses),"hypoglycemic events ([2]; human, in vivo)",Compound,A1C levels [3] [%]
1.5,intrinsically poor permeability,–,–,–,–,–,–,–,"CCOC(=O)OC[C@H]1O[C@@H](Oc2nn(C(C)C)c(C)c2Cc2ccc(OC(C)C)cc2)[C@H](O)[C@@H](O)[C@@H]1O [remogliflozin etabonate, 5-methyl-4-[4-(1-methylethoxy)benzyl]-1-(1-methylethyl)-1H-pyrazol-3-yl 6-O-(ethoxycarbonyl)-β-D-glucopyranoside]",–
–,poor permeability,1.5 to 2,1.5,3 to 6,significant increases,no corresponding increases,increases in hematocrit,very little evidence,Cc1c(Cc2ccc(OC(C)C)cc2)c(O[C@@H]2O[C@H](CO)[C@@H](O)[C@H](O)[C@H]2O)nn1C(C)C [remogliflozin],–
–,–,–,–,–,–,–,–,–,insulin lispro: rapid-acting insulin analog,7.1
